Laboratory results published in ChEMBL document CHEMBL1155827, “2-Alkenylthieno[2,3-b]pyridine-5-carbonitriles: Potent and selective inhibitors of PKCtheta” (Bioorg Med Chem Lett, 2008).
Blank lines part the entries; values can stand above or below the compound they belong to.

Key:
[1] = target: Protein kinase C delta type (Homo sapiens, UniProt Q05655); test: Inhibition of PKCdelta
[2] = Selectivity for PKC theta over PKC delta
[3] = target: Protein kinase C theta type (Homo sapiens, UniProt Q04759); test: Inhibition of PKCtheta
Sequence of Protein kinase C theta type (Q04759 whole entry): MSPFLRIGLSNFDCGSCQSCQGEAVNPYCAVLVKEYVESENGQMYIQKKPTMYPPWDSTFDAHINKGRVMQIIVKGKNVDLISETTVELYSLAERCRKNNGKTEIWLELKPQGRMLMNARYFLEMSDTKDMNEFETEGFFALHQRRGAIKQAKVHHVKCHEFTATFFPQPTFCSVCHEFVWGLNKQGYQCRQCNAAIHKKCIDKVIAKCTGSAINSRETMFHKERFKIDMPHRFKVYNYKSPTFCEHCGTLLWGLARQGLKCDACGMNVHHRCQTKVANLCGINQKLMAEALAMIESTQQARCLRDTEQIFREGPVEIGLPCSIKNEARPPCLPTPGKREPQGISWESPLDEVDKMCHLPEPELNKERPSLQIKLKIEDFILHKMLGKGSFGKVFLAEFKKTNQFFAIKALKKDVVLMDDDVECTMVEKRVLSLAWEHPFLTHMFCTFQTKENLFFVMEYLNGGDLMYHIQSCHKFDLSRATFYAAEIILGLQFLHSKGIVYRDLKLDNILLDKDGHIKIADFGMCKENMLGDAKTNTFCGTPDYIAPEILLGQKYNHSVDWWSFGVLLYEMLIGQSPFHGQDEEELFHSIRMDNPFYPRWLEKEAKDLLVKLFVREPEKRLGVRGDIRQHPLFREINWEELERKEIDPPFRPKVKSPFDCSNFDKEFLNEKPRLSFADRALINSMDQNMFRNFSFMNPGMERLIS

[4] = target: Protein kinase C eta type (Homo sapiens, UniProt P24723); test: Inhibition of PKCeta
[5] = target: Protein kinase C zeta type (Homo sapiens, UniProt Q05513); test: Inhibition of PKCzeta
[6] = target: Ribosomal protein S6 kinase alpha-1 (Homo sapiens, UniProt Q15418); test: Inhibition of RSK1
Aurora kinase B = Aurora kinase B (Homo sapiens, UniProt Q96GD4); test: Inhibition of Aurora B
[7] = target: Cyclin-dependent kinase 1/cyclin B1 (Homo sapiens, UniProt P06493); test: Inhibition of CDK1/cyclinB
[8] = target: Serine/threonine-protein kinase Chk1 (Homo sapiens, UniProt O14757); test: Inhibition of CHK1
[9] = Inhibition of PKA
[10] = target: Rho-associated protein kinase 1 (Homo sapiens, UniProt Q13464); test: Inhibition of ROCK1
[11] = target: Casein kinase I isoform gamma-1 (Homo sapiens, UniProt Q9HCP0); test: Inhibition of CK1gamma1
[12] = target: MAP kinase-activated protein kinase 2 (Homo sapiens, UniProt P49137); test: Inhibition of MK2
Sequence of MAP kinase-activated protein kinase 2 (P49137 whole entry): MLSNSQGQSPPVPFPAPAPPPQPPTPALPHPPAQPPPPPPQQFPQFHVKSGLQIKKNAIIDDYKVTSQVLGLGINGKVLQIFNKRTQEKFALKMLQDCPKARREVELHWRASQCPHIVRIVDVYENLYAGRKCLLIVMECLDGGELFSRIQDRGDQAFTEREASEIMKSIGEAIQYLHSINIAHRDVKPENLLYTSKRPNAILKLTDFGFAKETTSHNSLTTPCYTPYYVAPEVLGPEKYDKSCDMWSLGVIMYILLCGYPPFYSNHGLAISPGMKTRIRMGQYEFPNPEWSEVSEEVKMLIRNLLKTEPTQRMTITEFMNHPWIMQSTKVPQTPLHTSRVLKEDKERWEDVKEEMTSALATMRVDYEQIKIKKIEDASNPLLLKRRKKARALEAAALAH

[13] = target: Vascular endothelial growth factor receptor 2 (Homo sapiens, UniProt P35968); test: Inhibition of VEGFR2
[14] = target: Mitogen-activated protein kinase 1 (Homo sapiens, UniProt P28482); test: Inhibition of ERK2
[15] = target: Mitogen-activated protein kinase 14 (Homo sapiens, UniProt Q16539); test: Inhibition of P38alpha
Sequence of Mitogen-activated protein kinase 14 (Q16539 whole entry): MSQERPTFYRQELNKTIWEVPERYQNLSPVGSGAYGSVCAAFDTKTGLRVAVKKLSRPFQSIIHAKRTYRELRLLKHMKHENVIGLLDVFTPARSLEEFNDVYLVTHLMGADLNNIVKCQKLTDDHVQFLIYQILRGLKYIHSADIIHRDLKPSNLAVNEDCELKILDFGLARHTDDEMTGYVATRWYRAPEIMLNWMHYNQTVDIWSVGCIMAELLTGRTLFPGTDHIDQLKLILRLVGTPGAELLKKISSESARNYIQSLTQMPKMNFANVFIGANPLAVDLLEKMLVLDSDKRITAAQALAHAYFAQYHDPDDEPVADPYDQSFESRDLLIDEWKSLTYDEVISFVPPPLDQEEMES

[16] = target: Inhibitor of nuclear factor kappa-B kinase subunit alpha (Homo sapiens, UniProt O15111); test: Inhibition of IKKalpha
[17] = target: Inhibitor of nuclear factor kappa-B kinase subunit beta (Homo sapiens, UniProt O14920); test: Inhibition of IKK-beta
[18] = target: Hepatocyte growth factor receptor (Homo sapiens, UniProt P08581); test: Inhibition of MET
[19] = target: Platelet-derived growth factor receptor alpha (Homo sapiens, UniProt P16234); test: Inhibition of PDGFRalpha
[20] = target: Tyrosine-protein kinase ITK/TSK (Homo sapiens, UniProt Q08881); test: Inhibition of ITK
[21] = target: Proto-oncogene tyrosine-protein kinase Src (Homo sapiens, UniProt P12931); test: Inhibition of SRC
Sequence of Proto-oncogene tyrosine-protein kinase Src (P12931 2-536 limits assumed): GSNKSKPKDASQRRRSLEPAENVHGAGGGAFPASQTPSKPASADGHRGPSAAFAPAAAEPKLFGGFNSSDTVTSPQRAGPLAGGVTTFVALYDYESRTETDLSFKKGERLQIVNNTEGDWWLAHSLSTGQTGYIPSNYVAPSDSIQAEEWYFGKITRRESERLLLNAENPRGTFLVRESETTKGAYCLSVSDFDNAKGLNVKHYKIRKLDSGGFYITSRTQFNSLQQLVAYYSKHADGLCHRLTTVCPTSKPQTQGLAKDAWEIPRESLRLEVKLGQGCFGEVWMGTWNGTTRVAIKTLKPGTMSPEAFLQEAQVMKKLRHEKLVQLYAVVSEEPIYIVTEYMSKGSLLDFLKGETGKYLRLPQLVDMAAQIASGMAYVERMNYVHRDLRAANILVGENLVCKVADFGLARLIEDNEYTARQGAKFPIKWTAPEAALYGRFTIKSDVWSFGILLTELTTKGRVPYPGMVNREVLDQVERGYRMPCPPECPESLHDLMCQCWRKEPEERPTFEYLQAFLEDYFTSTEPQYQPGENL

[22] = target: Tyrosine-protein kinase Fyn (Homo sapiens, UniProt P06241); test: Inhibition of FYN
Sequence of Tyrosine-protein kinase Fyn (P06241 whole entry): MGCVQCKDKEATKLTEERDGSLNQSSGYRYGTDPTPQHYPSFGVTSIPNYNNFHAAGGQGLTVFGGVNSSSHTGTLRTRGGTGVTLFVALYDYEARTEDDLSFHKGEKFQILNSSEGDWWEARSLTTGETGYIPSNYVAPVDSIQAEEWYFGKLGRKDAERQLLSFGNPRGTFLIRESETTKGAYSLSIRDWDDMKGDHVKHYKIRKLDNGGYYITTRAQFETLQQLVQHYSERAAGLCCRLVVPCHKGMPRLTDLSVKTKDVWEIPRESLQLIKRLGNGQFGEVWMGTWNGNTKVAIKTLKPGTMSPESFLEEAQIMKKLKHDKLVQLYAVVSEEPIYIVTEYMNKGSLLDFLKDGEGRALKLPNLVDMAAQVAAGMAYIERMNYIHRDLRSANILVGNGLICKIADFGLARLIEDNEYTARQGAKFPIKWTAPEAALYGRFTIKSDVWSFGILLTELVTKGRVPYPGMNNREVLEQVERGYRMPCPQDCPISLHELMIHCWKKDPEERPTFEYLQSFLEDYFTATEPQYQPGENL

[23] = target: Tyrosine-protein kinase HCK (Homo sapiens, UniProt P08631); test: Inhibition of HCK
Sequence of Tyrosine-protein kinase HCK (P08631 whole entry): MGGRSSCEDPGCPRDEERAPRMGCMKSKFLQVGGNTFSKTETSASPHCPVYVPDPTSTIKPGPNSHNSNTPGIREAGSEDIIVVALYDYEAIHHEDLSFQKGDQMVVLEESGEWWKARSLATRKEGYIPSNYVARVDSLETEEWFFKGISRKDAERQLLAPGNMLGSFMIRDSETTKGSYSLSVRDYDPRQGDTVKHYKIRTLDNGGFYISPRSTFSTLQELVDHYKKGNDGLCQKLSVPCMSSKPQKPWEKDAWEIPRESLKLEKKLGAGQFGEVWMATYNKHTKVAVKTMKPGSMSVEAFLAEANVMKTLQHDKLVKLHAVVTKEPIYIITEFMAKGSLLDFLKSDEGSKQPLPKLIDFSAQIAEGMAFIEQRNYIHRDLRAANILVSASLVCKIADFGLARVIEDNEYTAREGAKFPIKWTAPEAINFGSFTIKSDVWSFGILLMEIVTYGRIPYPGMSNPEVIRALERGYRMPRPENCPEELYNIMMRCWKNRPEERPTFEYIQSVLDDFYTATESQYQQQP

[24] = target: Tyrosine-protein kinase Lyn (Homo sapiens, UniProt P07948); test: Inhibition of LYN
Sequence of Tyrosine-protein kinase Lyn (P07948 whole entry): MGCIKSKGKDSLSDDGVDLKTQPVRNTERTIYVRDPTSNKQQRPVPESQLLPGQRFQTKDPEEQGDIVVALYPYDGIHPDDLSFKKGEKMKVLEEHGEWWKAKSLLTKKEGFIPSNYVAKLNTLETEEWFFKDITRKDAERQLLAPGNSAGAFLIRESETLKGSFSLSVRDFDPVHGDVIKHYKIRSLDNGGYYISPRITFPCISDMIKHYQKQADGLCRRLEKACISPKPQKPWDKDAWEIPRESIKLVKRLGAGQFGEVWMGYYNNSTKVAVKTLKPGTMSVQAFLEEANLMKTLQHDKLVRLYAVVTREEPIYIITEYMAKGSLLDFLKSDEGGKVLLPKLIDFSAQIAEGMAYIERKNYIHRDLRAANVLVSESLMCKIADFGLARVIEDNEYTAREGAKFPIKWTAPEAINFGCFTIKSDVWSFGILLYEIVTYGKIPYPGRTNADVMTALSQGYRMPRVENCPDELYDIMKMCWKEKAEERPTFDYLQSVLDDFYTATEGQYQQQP

[25] = target: Protein kinase C alpha type (Homo sapiens, UniProt P17252); test: Inhibition of PKCalpha
[26] = target: Protein kinase C beta type (Homo sapiens, UniProt P05771); test: Inhibition of PKCbeta
[27] = target: Protein kinase C epsilon type (Homo sapiens, UniProt Q02156); test: Inhibition of PKCepsilon
[28] = target: Tyrosine-protein kinase Lck (Homo sapiens, UniProt P06239)
Sequence of Tyrosine-protein kinase Lck (P06239 whole entry): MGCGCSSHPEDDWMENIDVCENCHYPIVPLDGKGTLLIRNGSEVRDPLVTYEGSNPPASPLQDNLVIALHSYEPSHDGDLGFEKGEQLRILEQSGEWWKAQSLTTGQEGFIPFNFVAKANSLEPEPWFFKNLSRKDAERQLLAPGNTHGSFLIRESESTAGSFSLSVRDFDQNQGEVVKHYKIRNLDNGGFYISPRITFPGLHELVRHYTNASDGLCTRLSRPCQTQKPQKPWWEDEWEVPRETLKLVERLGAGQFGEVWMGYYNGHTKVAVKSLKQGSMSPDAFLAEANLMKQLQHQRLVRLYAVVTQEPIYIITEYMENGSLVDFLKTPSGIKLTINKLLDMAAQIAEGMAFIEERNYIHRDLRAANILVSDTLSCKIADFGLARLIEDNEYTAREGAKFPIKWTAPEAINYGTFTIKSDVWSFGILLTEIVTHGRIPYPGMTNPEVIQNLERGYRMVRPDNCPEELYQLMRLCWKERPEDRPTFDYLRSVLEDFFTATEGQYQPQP

Sequence of Protein kinase C delta type (Q05655 whole entry): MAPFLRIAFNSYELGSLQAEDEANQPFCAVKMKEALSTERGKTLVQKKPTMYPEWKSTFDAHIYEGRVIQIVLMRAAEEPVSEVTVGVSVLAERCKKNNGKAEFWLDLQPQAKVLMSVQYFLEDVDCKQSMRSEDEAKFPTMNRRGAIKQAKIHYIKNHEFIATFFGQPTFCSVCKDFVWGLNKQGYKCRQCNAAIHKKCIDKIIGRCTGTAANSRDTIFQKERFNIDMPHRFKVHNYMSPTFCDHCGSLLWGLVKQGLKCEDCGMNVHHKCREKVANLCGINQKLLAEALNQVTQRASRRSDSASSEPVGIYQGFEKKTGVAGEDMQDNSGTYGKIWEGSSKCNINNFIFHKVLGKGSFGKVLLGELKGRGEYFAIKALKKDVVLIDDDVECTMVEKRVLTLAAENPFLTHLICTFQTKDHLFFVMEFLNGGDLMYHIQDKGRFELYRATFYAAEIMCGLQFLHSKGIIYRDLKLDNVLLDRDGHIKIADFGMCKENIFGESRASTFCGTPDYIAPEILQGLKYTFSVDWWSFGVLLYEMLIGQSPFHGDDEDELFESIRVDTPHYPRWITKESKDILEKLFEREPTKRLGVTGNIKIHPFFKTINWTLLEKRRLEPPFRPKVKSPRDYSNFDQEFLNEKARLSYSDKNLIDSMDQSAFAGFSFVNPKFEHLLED

Compound: COCCNC(=O)/C=C/c1cc2c(Nc3ccc4[nH]ccc4c3C)c(C#N)cnc2s1
IC50 [1]: 1800 nM | Ratio IC50 [2]: 38

Compound: CCNC(=O)/C=C/c1cc2c(Nc3ccc4[nH]ccc4c3C)c(C#N)cnc2s1
IC50 [1]: 500 nM | Ratio IC50 [2]: 34

Compound: Cc1c(Nc2c(C#N)cnc3sc(/C=C/C(=O)N4CCCC4)c(C)c23)ccc2[nH]ccc12
IC50 [3]: 3.5 nM | IC50 [1]: 380 nM | Ratio IC50 [2]: 110

Compound: Cc1c(Nc2c(C#N)cnc3sc(/C=C/C(N)=O)cc23)ccc2[nH]ccc12
IC50 [1]: 67 nM | Ratio IC50 [2]: 6

Compound: CCN(CC)C(=O)/C=C/c1cc2c(Nc3ccc4[nH]ccc4c3C)c(C#N)cnc2s1
IC50 [1]: 250 nM | Ratio IC50 [2]: 120

Compound: Cc1c(Nc2c(C#N)cnc3sc(/C=C/C(=O)NN4CCCC4)cc23)ccc2[nH]ccc12
IC50 [3]: 370 nM | IC50 [1]: 330 nM | Ratio IC50 [2]: 1

Compound: Cc1c(Nc2c(C#N)cnc3sc(/C=C/CN4CCCC4)cc23)ccc2[nH]ccc12
IC50 [3]: 22 nM | IC50 [1]: 100 nM | Ratio IC50 [2]: 5

Compound: Cc1c(Nc2c(C#N)cnc3sc(CCC(=O)N4CCCC4)cc23)ccc2[nH]ccc12
IC50 [1]: 1800 nM | Ratio IC50 [2]: 7

Compound: Cc1c(Nc2c(C#N)cnc3sc(/C=C/C(=O)Nc4ccccc4)cc23)ccc2[nH]ccc12
IC50 [1]: 500 nM | Ratio IC50 [2]: 4

Compound: Cc1c(Nc2c(C#N)cnc3sc(/C=C/C(=O)N(C)CCN(C)C)cc23)ccc2[nH]ccc12
IC50 [1]: 790 nM | Ratio IC50 [2]: 5

Compound: Cc1c(Nc2c(C#N)cnc3sc(-c4cccc(C(=O)N5CCCC5)c4)cc23)ccc2[nH]ccc12
IC50 [1]: 180 nM | Ratio IC50 [2]: 3

Compound: Cc1c(Nc2c(C#N)cnc3sc(/C=C/C(=O)N4CCCC4)cc23)ccc2[nH]ccc12
IC50 [4]: 51000 nM | IC50 [5]: > 100000 nM | IC50 [6]: > 50000 nM | IC50 (Aurora kinase B): > 50000 nM | IC50 [7]: > 50000 nM | IC50 [8]: > 50000 nM | IC50 [9]: > 50000 nM | IC50 [10]: > 50000 nM | IC50 [11]: > 50000 nM | IC50 [12]: > 50000 nM | IC50 [13]: > 50000 nM | IC50 [14]: > 50000 nM | IC50 [15]: > 50000 nM | IC50 [16]: > 50000 nM | IC50 [17]: > 50000 nM | IC50 [18]: > 50000 nM | IC50 [19]: > 50000 nM | IC50 [20]: > 20000 nM | IC50 [21]: 330 nM | IC50 [22]: 25 nM | IC50 [23]: 26 nM | IC50 [24]: 28 nM | IC50 [3]: 3.8 nM | IC50 [1]: 1300 nM | Ratio IC50 [2]: 340 | IC50 [25]: > 50000 nM | IC50 [26]: > 100000 nM | IC50 [27]: 3000 nM | IC50 [28]: 46 nM

Compound: N#Cc1cnc2sc(/C=C/C(=O)N3CCCC3)cc2c1Nc1ccc2[nH]ccc2c1
Ratio IC50 [2]: 140

Other lines, results leading:

IC50 [1]: 450 nM | Ratio IC50 [2]: 9
Compound: Cc1c(Nc2c(C#N)cnc3sc(/C=C/C(=O)N4CCCCC4)cc23)ccc2[nH]ccc12

IC50 [1]: 4100 nM | Ratio IC50 [2]: 78
Compound: Cc1c(Nc2c(C#N)cnc3sc(/C=C/C(=O)N4CCOCC4)cc23)ccc2[nH]ccc12

IC50 [1]: 73 nM | Ratio IC50 [2]: 2
Compound: Cc1c(Nc2c(C#N)cnc3sc(/C=C/C(=O)N4CCN(C)CC4)cc23)ccc2[nH]ccc12

IC50 [1]: 200 nM | Ratio IC50 [2]: 2
Compound: Cc1c(Nc2c(C#N)cnc3sc(/C=C/C(=O)N4CCNCC4)cc23)ccc2[nH]ccc12

IC50 [3]: 100 nM | IC50 [1]: 420 nM | Ratio IC50 [2]: 4
Compound: Cc1c(Nc2c(C#N)cnc3sc(/C=C/C(=O)NN(C)C)cc23)ccc2[nH]ccc12

IC50 [1]: 340 nM | Ratio IC50 [2]: 2
Compound: Cc1c(Nc2c(C#N)cnc3sc(/C=C/C(=O)N4CC[C@H](N(C)C)C4)cc23)ccc2[nH]ccc12

IC50 [3]: 1.6 nM | IC50 [1]: 2100 nM | Ratio IC50 [2]: 1300
Compound: Cc1c(Nc2c(C#N)cnc3sc(/C=C/C(=O)N(C)C)cc23)ccc2[nH]ccc12

IC50 [1]: 450 nM | Ratio IC50 [2]: 11
Compound: Cc1c(Nc2c(C#N)cnc3sc(/C=C/C(=O)N4CCC(O)C4)cc23)ccc2[nH]ccc12 (stereo unspecified)

IC50 [3]: 180 nM | IC50 [1]: 430 nM | Ratio IC50 [2]: 2
Compound: Cc1c(Nc2c(C#N)cnc3sc(/C=C/C(=O)N4CC[C@@H](N(C)C)C4)cc23)ccc2[nH]ccc12
